Tested on: LNCaP C-81 cells
Test: cell proliferation assay
Assay type: cell-based, Human
Details: regular culture medium, 3 days treatment

Compound | inhibition of proliferation
O=C(c1ccc(O)c(NC(=O)c2cccc3ccccc23)c1)c1ccc(O)c(NC(=O)c2cccc3ccccc23)c1 [Compound A36] | about 32%
O=C(NN=C1C=CC(=NOS(=O)(=O)c2ccccc2)C=C1)c1cc2ccccc2cc1O [Compound A9] | up to 70%

— article PMC4150255 (Journal of medicinal chemistry, 2012)
